These results are taken from ChEMBL document CHEMBL2176882 (Bioorg Med Chem Lett, 2012).

Series [1] relates to Blood. Kind of series: Antiinflammatory activity in human whole blood assessed as inhibition of LPS-induced TNFalpha production. It counts as functional, tissue-based.
The test system of series [2] is Blood. The experiment in a line: Antiinflammatory activity in human whole blood assessed as inhibition of LPS-induced IFNgamma production. It counts as functional, tissue-based.
In series [3] the test system is PBMC. Kind of series: cells. Particulars: Homo sapiens, read-out: pIC50 (converted).
Description: Antiinflammatory activity in human PBMC assessed as inhibition of LPS-induced IL6 production
Series [4] is described as follows: Aqueous solubility of the compound at pH 5. It counts as physicochemical. Particulars: aqueous medium.
Series [5] deals with Bromodomain-containing protein 4 (Homo sapiens, UniProt O60885). Kind of series: Binding affinity to BRD4 assessed as inhibition of Alexa Fluor 488 binding after 60 mins by fluorescence anisotropic analysis.
In series [6] the test system is PBMC. The experiment in a line: Cytotoxicity against human PBMC assessed as decrease in ATP level. It counts as cell-based.
The target of series [7] is Bromodomain-containing protein 2 (Homo sapiens, UniProt P25440). Kind of series: Binding affinity to human BRD2 assessed as inhibition of Alexa Fluor 488 binding after 60 mins by fluorescence anisotropic analysis.
Bromodomain-containing protein 2, sequence (P25440 whole entry): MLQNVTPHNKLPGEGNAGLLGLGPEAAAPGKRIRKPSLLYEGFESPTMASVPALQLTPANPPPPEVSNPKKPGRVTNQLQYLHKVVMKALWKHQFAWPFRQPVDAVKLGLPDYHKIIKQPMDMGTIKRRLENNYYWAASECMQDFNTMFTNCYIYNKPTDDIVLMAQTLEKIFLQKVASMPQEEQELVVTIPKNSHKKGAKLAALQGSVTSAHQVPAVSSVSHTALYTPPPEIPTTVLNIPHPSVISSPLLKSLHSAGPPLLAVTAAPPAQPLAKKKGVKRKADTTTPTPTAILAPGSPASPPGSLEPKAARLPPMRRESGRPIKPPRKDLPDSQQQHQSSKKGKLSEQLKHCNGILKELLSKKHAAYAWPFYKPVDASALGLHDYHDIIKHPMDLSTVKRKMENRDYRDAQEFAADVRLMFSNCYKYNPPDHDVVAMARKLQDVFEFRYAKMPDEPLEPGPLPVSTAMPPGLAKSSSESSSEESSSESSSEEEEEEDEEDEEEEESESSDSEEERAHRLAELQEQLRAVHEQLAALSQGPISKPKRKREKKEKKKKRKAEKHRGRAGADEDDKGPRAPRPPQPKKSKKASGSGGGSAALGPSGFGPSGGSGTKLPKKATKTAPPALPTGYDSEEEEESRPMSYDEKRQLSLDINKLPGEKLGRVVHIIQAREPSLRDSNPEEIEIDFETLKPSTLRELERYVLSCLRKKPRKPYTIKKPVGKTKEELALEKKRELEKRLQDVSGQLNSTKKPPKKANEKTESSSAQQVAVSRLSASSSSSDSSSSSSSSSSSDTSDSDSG
The test system of series [8] is HepG2. The experiment in a line: Inhibition of BET in human HepG2 cells assessed as upregulation of ApoA1 after 18 hrs by luciferase reporter gene assay. It counts as cell-based. (In general: In a reporter assay the amount or activity of a reporter protein is the signal.)
The target of series [9] is Cytochrome P450 3A4 (Homo sapiens, UniProt P08684). The experiment in a line: Inhibition of CYP3A4 using diethoxyfluoresin as substrate. It counts as ADME.
Cytochrome P450 3A4, sequence (P08684 whole entry): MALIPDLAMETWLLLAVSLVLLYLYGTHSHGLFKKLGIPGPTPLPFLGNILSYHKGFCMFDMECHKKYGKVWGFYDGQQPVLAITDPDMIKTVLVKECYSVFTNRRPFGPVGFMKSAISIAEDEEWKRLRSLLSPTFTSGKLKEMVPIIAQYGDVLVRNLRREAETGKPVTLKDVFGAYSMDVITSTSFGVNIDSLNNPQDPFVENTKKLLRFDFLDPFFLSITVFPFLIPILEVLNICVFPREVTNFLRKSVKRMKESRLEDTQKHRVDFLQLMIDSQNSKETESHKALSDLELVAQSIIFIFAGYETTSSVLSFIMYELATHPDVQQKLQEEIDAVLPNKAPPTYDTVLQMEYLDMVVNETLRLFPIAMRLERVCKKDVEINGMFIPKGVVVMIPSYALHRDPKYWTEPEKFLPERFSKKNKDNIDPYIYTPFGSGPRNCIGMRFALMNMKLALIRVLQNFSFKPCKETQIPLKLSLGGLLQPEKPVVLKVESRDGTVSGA
Series [10] relates to Blood. Kind of series: Antiinflammatory activity in human whole blood assessed as inhibition of LPS-induced IL10 production. It counts as functional, tissue-based.
The target in series [11] is Bromodomain-containing protein 3 (Homo sapiens, UniProt Q15059). The experiment in a line: Binding affinity to BRD3 assessed as inhibition of Alexa Fluor 488 binding after 60 mins by fluorescence anisotropic analysis.
Bromodomain-containing protein 3, sequence (Q15059 whole entry): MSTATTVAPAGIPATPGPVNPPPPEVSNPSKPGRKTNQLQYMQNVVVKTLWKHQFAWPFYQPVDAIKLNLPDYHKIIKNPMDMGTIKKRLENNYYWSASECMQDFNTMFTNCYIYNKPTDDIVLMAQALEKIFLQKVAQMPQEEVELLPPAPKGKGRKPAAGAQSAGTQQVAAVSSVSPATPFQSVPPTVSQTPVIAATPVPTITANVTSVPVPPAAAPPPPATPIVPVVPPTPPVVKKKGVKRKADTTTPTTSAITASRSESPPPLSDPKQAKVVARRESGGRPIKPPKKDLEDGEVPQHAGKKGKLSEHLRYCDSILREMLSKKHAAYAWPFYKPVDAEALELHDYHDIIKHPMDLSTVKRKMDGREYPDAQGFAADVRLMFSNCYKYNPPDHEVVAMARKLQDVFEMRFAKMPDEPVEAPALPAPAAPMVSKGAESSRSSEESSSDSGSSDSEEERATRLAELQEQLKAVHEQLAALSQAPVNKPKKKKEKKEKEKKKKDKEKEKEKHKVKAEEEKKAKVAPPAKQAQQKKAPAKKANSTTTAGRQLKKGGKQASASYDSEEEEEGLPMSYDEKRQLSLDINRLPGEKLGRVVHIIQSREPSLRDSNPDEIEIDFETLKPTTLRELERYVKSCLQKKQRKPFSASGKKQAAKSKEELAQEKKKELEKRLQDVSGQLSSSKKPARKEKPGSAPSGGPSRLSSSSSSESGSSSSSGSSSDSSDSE
For series [12], the target named is Cytochrome P450 2C9 (Homo sapiens, UniProt P11712). Kind of series: Inhibition of CYP2C9. It counts as ADME.
Cytochrome P450 2C9, sequence (P11712 whole entry): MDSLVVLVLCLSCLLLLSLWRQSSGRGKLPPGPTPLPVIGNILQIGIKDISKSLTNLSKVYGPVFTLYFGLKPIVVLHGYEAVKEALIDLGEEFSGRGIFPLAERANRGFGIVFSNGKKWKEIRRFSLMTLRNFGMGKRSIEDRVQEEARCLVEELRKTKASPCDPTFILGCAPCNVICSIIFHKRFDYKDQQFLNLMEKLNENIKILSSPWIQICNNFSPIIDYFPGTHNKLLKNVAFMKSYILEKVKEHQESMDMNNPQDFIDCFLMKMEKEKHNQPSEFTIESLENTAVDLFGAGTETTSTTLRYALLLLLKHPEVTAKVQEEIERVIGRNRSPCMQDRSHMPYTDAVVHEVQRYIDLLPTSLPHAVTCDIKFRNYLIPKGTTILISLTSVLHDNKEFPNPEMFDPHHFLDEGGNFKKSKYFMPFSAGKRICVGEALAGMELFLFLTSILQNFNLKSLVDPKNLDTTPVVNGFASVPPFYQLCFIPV
Series [13] deals with Blood. Kind of series: Antiinflammatory activity in human whole blood assessed as inhibition of LPS-induced IL12p70 production. It counts as functional, tissue-based.
Series [14] has as its system Blood. Kind of series: Antiinflammatory activity in human whole blood assessed as inhibition of LPS-induced IL8 production. It counts as functional, tissue-based.

Structures are written as SMILES. ≈ marks a conversion by molar mass, not a printed value. Calls of active or inactive are those of the source. The calls are words filed in the database; no cut-off is given here.

The solubility is the dissolved amount per volume that the medium holds. With `COc1cc2c(NC3CCCCC3)c(C(N)=O)cnc2cc1-c1c(C)noc1C`, the result in [1] and in series [10] was Active. Further, the result in [2], in [13] and in series [14] was inactive. For the same molecule, the IC50 is 1000 nM in [3]; 1260 nM in series [5]; 2000 nM in [7]; 6100 nM in series [9]; 501 nM in series [11]; 4300 nM in series [12]. This molecule also returned a solubility in series [4] of 236 µg/mL (≈ 598 µM). Also, the Activity result in series [6] is listed as “Non-toxic”. The pEC170 in [8] came to 6.4.
